Assay results as given in article PMC11489226 (Archives of Toxicology, 2024).

What was measured:
CYP2A6 = biological target: T1, CYP2A6 (Homo sapiens, UniProt P11509); experiment: Urinary 1,7-dimethyluric acid/paraxanthine metabolic ratio after caffeine (CYP2A6 phenotyping); details: urine, 0–360 min after 50 mg caffeine oral; ten PCB-exposed subjects
T1 sequence (P11509 1-494): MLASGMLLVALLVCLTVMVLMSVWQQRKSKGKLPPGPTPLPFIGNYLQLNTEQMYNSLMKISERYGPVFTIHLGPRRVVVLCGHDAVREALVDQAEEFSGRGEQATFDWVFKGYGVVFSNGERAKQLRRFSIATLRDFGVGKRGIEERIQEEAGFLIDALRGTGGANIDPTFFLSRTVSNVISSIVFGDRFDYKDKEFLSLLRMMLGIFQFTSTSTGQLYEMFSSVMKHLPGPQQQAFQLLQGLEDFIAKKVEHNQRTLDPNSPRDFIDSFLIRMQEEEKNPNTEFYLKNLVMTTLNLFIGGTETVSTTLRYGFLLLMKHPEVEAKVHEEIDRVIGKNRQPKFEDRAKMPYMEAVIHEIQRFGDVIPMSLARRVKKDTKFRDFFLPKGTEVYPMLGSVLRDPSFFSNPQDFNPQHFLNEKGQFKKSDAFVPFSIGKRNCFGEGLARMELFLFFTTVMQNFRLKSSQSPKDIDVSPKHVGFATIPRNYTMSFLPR
Description: Ten subjects with prior occupational exposure to PCBs and ten controls were included into a clinical CYP phenotyping cocktail study at the Institute for Occupational, Social and Environmental Medicine, University Hospital RWTH Aachen. PCB-exposed participants were reinvited from the HELPcB (Health Effects in High-Level Exposure to PCB) medical surveillance program. […] Subjects were allowed to consume non-caffeinated beverages and received a meal 3 following the administration of the drug cocktail. Concentrations of the test compounds and their CYP-mediated metabolites were measured using LC–MS, with urine sampling over 24 h with 5 time points at 1,2,4,6, and 24 h after drug cocktail intake. […] Urine samples were weighed during sampling.
20 µL urine or calibrators and quality controls in Sigmatrix urine diluent (SAE0074-1L, Sigma-Aldrich) were protein precipitated with 80 µL methanol including 1000 ng/mL internal standards caffeine-d9, paraxanthine-d6, and 1,7-dimethyluric acid-d3. Samples were briefly vortexed and centrifuged for 5 min at 17,000g and 4 °C. […] Caffeine and paraxanthine were detected in positive ion mode and 1,7-dimethyluric acid in negative ion mode. […] The metabolic ratio for 1,7-dimethyluric acid/paraxanthine was calculated based on the measured urine concentrations. […]

HEK293CYP2A6 cells [1] = experiment: MTT assay in HEK293CYP2A6 cells; assay type: cell-based, human; details: for Concentration from which the fraction of cell viability affected (FA) increased: HEK293CYP2A6 cells, MTT; for IC50: Homo sapiens, HEK293CYP2A6 cell line, read-out: IC50 (MTT, cell viability / metabolic activity); for PCB concentration at which the difference between HEK293 cells and CYP2A6 transgenic cells becomes statistically significant: MTT assay, Fig. 2
Description: For the determination of metabolic activity, HEK293 cells as well as transgenic HEK293CYP2A6 and HEK293CYP2C9 cells were plated into 96-well flat-bottomed microtiter plates (Becton Dickinson, Heidelberg, Germany) at a density of 1 × 10^5 cells in 100 μL of media. Cells were allowed to grow for 24 h geneticin free before PCBs were added. Controls included cells grown in medium with and without ethanol (maximal 1% (vol/vol)) added. After 48 h, the ability of remaining viable cells to transform 3-(4,5-dimethylthiazol-2-yl)-2,5-diphenyltetrazolium bromide (MTT) into formazan was assessed (MTT Cell Proliferation Assay, ATCC, Manassas, USA). The absorbance of the samples was measured on a Microplate Reader (FLUOstar, BMG Labtech, Ortenberg, Germany) at 450 nm.

HEK293CYP2A6 cells [2] = experiment: Neutral comet assay in HEK293CYP2A6 cells; assay type: cell-based, human; details: for Comet assay: percentage of tail DNA / DNA damage above background: 20 or 30 µM
Description: (§1) For neutral comet assays, transgenic CYP2A6 and transgenic CYP2C9 cells were treated with parent PCBs for 5 h. After treatments, 50 μL of a suspension of 10^5 cells/mL were washed in PBS and resuspended in 500 μL of preheated agarose (37 °C). The agarose/cell suspensions were applied to microscopic slides and left for 30 min at 4 °C to allow gel polymerization. After cell lysis using a commercial buffer (Trevigen, Gaithersburg, USA), single-cell gel electrophoresis was performed at 1 V/cm for 1 h. After precipitation of the DNA with ammonium acetate, samples were fixed in 70% ethanol for 30 min and dried. To visualize dsDNA, SYBR™ Green I Nucleic Acid Gel Stain (Invitrogen, Carlsbad, USA) was used. Pictures of at least 50 cells/section were taken using a fluorescence microscope (DMRX, Leica: 450–490 nm BP- filter, 40 × magnification). The extent of the genotoxic effect of PCBs was calculated using the ImageJ-based OpenComet software.

HEK293CYP2C9 cells [3] = experiment: Neutral comet assay in HEK293CYP2C9 cells; assay type: cell-based, human; details: HEK293CYP2C9 control cells; 20 or 30 µM
Description: as §1

HEK293CYP2C9 cells [4] = experiment: Micronucleus assay in HEK293CYP2C9 cells; assay type: cell-based, human; details: 20 and 30 µM, 24 h
Description: (§2) Transgenic HEK293CYP2A6 and HEK293CYP2C9 cells were cultured in T25 flasks, with a seeding density of 1 × 10^6 cells per flask at 37 °C with 5% CO2. Cells were allowed to grow for 24 h geneticin free before PCBs were added (20 µM or 30 µM). Controls included cells grown in the presence of 1% ethanol (vol/vol) (negative control) or […] 4-nitroquinoline 1-oxide (positive control). Following further incubation for 24 h, cells were synchronized by adding Cytochalasin B. Subsequently, cells were harvested by trypsinization, centrifuged (2,000g, 10 min), and washed with DPBS (Dulbecco’s PBS). For hypotonic shock, 4 °C cold potassium chloride solution was added to the cells under agitation. Cells were completely resuspended and incubated at room temperature for 5 min. After centrifugation (2,500g, 10 min), the supernatant was discarded. To fix the cells, they were treated with a methanol/acetic acid solution (− 20 °C), with a minimum incubation time of 15 min at room temperature. Following centrifugation (2,500g, 10 min), the supernatant was discarded, and the fixation process was repeated at least three times. Finally, the samples were dissolved in 1 mL of fixative solution and incubated overnight at 4 °C. For analysis, two to three drops from each sample were placed on a glass slide, with intermittent heating of the slide. Subsequently, the cells were visualized with acridine orange, and using a fluorescence microscope (Leica DM6000B, Filter I3 450–490 nm), 2,000 cells per sample were counted.

HEK293CYP2A6 cells [5] = experiment: Light microscopic evaluation of HEK293CYP2A6 cells; assay type: cell-based, human; details: 24 h of incubation (data not shown)
[6] = PCB concentrations in plasma of HELPcB participants (2010); assay type: in vivo, human; details: human, plasma, other: occupational exposure, sample of 2010
HEK293CYP2A6 cells [7] = experiment: Micronucleus assay in HEK293CYP2A6 cells; assay type: cell-based, human; details: HEK293CYP2A6 cells; 20 and 30 µM, 24 h
Description: as §2

[8] = system: Salmonella typhimurium strains; set-up: method as in Wyndham et al. [1976]; details: PCB52 and its primary metabolites; ref Wyndham et al. [1976]; cited from earlier work
mouse fibroblasts = system: mouse fibroblasts; set-up: method as in Stadnicki et al. [1979]; details: ref Stadnicki et al. [1979]; cited from earlier work
human lymphocytes [9] = system: human lymphocytes; set-up: method as in Stadnicki et al. [1979]; details: ref Stadnicki et al. [1979]; cited from earlier work
human lymphocytes [10] = system: human lymphocytes; set-up: method as in Sargent et al. [1989]; details: ref Sargent et al. [1989]; cited from earlier work
bone marrow and liver = system: bone marrow and liver; set-up: method as in Sargent et al. [1992]; details: ref Sargent et al. [1992]; cited from earlier work
fish cells = system: fish cells; set-up: method as in Marabini et al. [2011]; details: ref Marabini et al. [2011]; cited from earlier work
human lung fibroblast = system: human lung fibroblast; set-up: method as in Hashmi et al. [2015]; details: higher concentrations compared to lower concentrations; ref Hashmi et al. [2015]; cited from earlier work

| SMILES | Concentration from which the fraction of cell viability affected (FA) increased (HEK293CYP2A6 cells [1]) | IC50 (HEK293CYP2A6 cells [1]) | PCB concentration at which the difference between HEK293 cells and CYP2A6 transgenic cells becomes statistically significant (HEK293CYP2A6 cells [1]) | DNA damage classified according to the comet scale (percentage of tail DNA) (HEK293CYP2A6 cells [2]; 20 µM) | DNA damage classified according to the comet scale (percentage of tail DNA) (HEK293CYP2A6 cells [2]; 30 µM) | Comet assay: percentage of tail DNA / DNA damage above background (HEK293CYP2A6 cells [2]) | Percentages of micronuclei (HEK293CYP2C9 cells [4]) | Light microscopic evaluation: type of effect (HEK293CYP2A6 cells [5]) | concentration at 2010 calendar year ([6]; HELPcB participant AD) | concentration at 2010 calendar year ([6]; HELPcB participant AE) | concentration at 2010 calendar year ([6]; HELPcB participant eight) | concentration at 2010 calendar year ([6]; HELPcB participant five) | concentration at 2010 calendar year ([6]; HELPcB participant four) | concentration at 2010 calendar year of sampling ([6]; HELPcB participant one) | concentration at 2010 calendar year ([6]; HELPcB participant seven) | concentration at 2010 calendar year ([6]; HELPcB participant six) | concentration at 2010 calendar year ([6]; HELPcB participant three) | concentration at 2010 calendar year of sampling ([6]; HELPcB participant two) | Percentages of micronuclei (HEK293CYP2A6 cells [7]) | further results |
| --- | --- | --- | --- | --- | --- | --- | --- | --- | --- | --- | --- | --- | --- | --- | --- | --- | --- | --- | --- | --- |
| Cn1c(=O)[nH]c2[nH]c(=O)n(C)c2c1=O [1,7-DMU, 1,7-dimethyluric acid] |  |  |  |  |  |  |  |  |  |  |  |  |  |  |  |  |  |  |  | Logarithmically transformed metabolic ratio of 1,7-DMU and paraxanthine, median (CYP2A6): 0.4 |
| Clc1ccc(-c2ccc(Cl)cc2Cl)cc1 [PCB28, 2,4,4′-trichlorobiphenyl] | 10 µM | 27 µM | 40 µM | moderate damage | moderate damage | concentration-dependent increase | inactive | primarily cytotoxic effects (cell death) | 0.823 ng/mL | 1.48 ng/mL | 0.1 ng/mL | 0.21 ng/mL | 0.023 ng/mL | 2.69 ng/mL | 0.051 ng/mL | 0.309 ng/mL | 0.999 ng/mL | 0.019 ng/mL |  | Comet assay: increase in percentage of tail DNA (HEK293CYP2C9 cells [3]): not evident |
| Clc1ccc(Cl)c(-c2cc(Cl)ccc2Cl)c1 [PCB52, 2,2′,5,5′-tetrachlorobiphenyl] | 20 µM | 26.2 µM | 40 µM | low damage | low damage | not | indistinguishable effects | cytostatic effects (proliferation arrest) | 0.026 ng/mL | 0.005 ng/mL | 0.005 ng/mL | 0.031 ng/mL | 0.005 ng/mL | 0.348 ng/mL | 0.021 ng/mL | 0.043 ng/mL | 0.04 ng/mL | 0.005 ng/mL | diminished effect | Mutagenic activity [8]: did not exhibit mutagenic activity; DNA strand breaks (mouse fibroblasts): positive or weakly positive; DNA strand breaks (human lymphocytes [9]): positive or weakly positive; Sister chromatid exchange (human lymphocytes [10]): negative; Chromosomal aberrations in vivo (bone marrow and liver): absence of chromosomal aberrations |
| Clc1ccc(Cl)c(-c2cc(Cl)c(Cl)cc2Cl)c1 [PCB101, 2,2′,4,5,5′-pentachlorobiphenyl] | 20 µM | 34.8 µM | 60 µM | high damage | moderate damage | DNA damage was also seen | inactive | cytostatic effects (proliferation arrest) | 0.073 ng/mL | 0.005 ng/mL | 0.005 ng/mL | 0.111 ng/mL | 0.005 ng/mL | 0.519 ng/mL | 0.03 ng/mL | 0.227 ng/mL | 0.078 ng/mL | 0.005 ng/mL | approximately threefold elevated | Genotoxicity compared with etoposide (comet assay) (HEK293CYP2A6 cells [2]; etoposide 10 µm positive control): more potent than of etoposide; DNA strand breaks (fish cells): induce; Micronucleus formation (fish cells): induce; Genotoxicity (human lung fibroblast): increased significantly |
